Data reported in PMC5266331, “Novel PARP-1 Inhibitor Scaffolds Disclosed by a Dynamic Structure-Based Pharmacophore Approach” (PLoS ONE, 2017).

Target: T1, PARP-1 (Homo sapiens, UniProt P09874)
T1 construct: gene PARP1
Assay: HT Universal Colorimetric PARP Assay kit (histone-coated wells, biotinylated poly(ADP-ribose))
Type: biochemical

T1 sequence (P09874 2-1014): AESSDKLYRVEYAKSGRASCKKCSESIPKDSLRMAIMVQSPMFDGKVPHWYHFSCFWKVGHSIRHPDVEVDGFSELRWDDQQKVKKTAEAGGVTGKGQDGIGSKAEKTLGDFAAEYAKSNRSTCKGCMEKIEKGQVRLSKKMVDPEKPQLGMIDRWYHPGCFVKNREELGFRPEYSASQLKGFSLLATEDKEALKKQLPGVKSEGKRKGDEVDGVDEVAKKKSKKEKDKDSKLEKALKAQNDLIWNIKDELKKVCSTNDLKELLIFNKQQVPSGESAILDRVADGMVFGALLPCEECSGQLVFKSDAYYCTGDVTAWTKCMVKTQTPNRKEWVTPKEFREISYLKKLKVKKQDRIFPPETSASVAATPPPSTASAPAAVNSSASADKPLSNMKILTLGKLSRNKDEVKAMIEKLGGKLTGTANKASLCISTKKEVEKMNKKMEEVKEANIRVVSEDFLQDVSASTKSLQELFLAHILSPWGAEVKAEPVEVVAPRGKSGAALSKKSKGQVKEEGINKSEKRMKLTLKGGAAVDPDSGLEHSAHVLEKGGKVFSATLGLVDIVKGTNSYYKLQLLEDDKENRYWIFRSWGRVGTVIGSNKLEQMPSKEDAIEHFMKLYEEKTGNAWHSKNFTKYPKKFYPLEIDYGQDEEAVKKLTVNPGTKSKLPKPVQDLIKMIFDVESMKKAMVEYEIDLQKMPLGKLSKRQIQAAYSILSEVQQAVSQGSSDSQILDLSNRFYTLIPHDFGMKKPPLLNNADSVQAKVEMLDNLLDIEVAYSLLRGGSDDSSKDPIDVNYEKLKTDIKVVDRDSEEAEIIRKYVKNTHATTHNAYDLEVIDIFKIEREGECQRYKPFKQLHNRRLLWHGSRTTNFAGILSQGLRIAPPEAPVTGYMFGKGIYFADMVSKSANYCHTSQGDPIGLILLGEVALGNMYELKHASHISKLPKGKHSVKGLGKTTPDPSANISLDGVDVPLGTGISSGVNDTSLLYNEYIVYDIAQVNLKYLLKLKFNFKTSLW

## COc1ccc2c(c1O)CNCC2c1ccc(O)c(O)c1 (stereo not shown) [NSC131753]
  IC50: 240 nM
